According to patent US20050202407A1, “Methods and assays for screening anti-neoplastic therapeutic agents” (Baylor College of Medicine, priority 2003, published 2005):

What was measured:
LNCaP cells = assay: Viability assay with MEK inhibitors
Experimental: (§1) Cells were infected or transfected in six-well plates. Forty-eight hours after infection or transfection, cells were treated with 1 μM Tg for the time indicated. At the end of the treatments MTS assays were performed using CellTiter 96 aqueous one solution reagent from Promega by a modified version of the procedure. Briefly 300 μl of MTS solution was added to each well and incubated for 1 h at 37° C. One milliliter of reaction or medium mix was transferred from each well to an Eppendorf tube and then centrifuged in a microcentrifuge for 5 min at 4,000 rpm (˜3,000×g). One hundred microliters of supernatant was transferred to each well of a 96-well plate, and the relative viability was determined by the measurement of absorbance at 490 nm in a 96-well plate reader. […] Apoptotic morphology was analyzed with phase-contrast fluorescence microscopy after incubation with 0.2 μg of 4′6′-dismidino-2-phenylindole (DAPI) per ml. The activities of caspases in the cell lysates were analyzed by Western blotting using specific antibodies recognizing procaspases or cleaved forms of caspases, followed by quantitative intensity analysis using software (GelExpert; Nucleo Vision) and normalized to the intensity of β-actin in the same sample.

ERK1/2 = assay: Phosphorylated ERK1/2 by Western blot; format: cell-based, human; conditions: Adcav-1- or AdRSV-infected cells
Experimental: Unless specifically indicated, immunoprecipitation (IP) was performed as follows. Cells were washed with ice-cold phosphate-buffered saline (PBS), lysed on the plates by incubation for 10 min on ice with IP lysis buffer, which consists of 20 mM Tris-HCl (pH 7.5), 150 mM NaCl, 1 mM EDTA, 1 mM EGTA, 1% Triton X-100, 1 mM β-glycerophosphate, 60 mM octylglucoside and protease inhibitor cocktail. Cells were then scraped off the dish, transferred to microcentrifuge tubes, placed on ice for 20 min, and centrifuged for 10 min at high speed in a microcentrifuge at 4° C. The supernatant (cell lysate) was transferred to a fresh tube and frozen at −80° C. until use. Typically, 500 μg of cell lysate proteins were diluted to 500 μl with IP lysis buffer and precleared by incubation with 3 μg of the corresponding immunoglobulin G (IgG) from […] for 30 min at 4° C. on a rocker, followed by the addition of 50 μl of IP lysis buffer-prewashed protein A or G plus agarose and incubation for another 1 h. The cleared cell lysate was incubated with 3 μg of specific antibody or the corresponding IgG overnight at 4° C. on a rocker. […] For regular Western blot analysis, protein concentration in cell lysates was determined by the Bio-Rad protein assay, and 30 μg of protein from each sample was loaded on the gel. β-Actin served as a loading control.

PDK1 = PDK1 IP kinase assay; format: cell-based, human; conditions: 1 μM Tg for 48 h; LNCaP cells
Experimental: Cell lysates were prepared as described above. PDK1 activity assay was performed according to the manufacturer's protocol (Upstate Biotechnology). Radioactivity that remained on the P81 paper was read with TopCount (Packard).
Protein expression levels and kinase activities of PI3-K, PDK1, and Akt were determined in cav-1-expressing or vector control LNCaP cells before and after treatment with 1 μM Tg for 48 h (+Tg): (A) PI3-K kinase assay by TLC (top gel); (B) PDK1 IP kinase assay; (C) Akt IP kinase assay using recombinant GSK3 as a substrate. Total protein and phosphorylated protein (indicated by P-prefix before protein name) of each kinase were analyzed and presented in each blot. β-Actin served as a loading control. There was no difference in protein expression levels for PI3-K in cav-1-expressing cells to control vector-infected cells (FIG. 2A). Although PI3-K activity was reduced by Tg treatment, no difference was found between cav-1-expressing and control cells (FIG. 2A). Tg treatment also led to reduced PDK1 activity; however, compared with control RSV-infected cells, PDK1 activity was approximately 17% higher in cav-1-expressing cells and approximately 30% higher in Tg-treated cav-1-expressing cells (FIG. 2B). In the same lysates, there was no difference in PDK1 protein expression (FIG. 2B).

PI3-K = PI3-K activity assay (TLC); format: cell-based, human; conditions: 1 μM Tg for 48 h; cav-1-expressing and control LNCaP cells
Experimental: Cell lysates were prepared as described above for the Akt activity assay. PI3-K activity assays were performed as described below. Briefly, 500 μg of cell lysate proteins were immunoprecipitated with monoclonal antibody against phosphotyrosine for 3 h at 4° C. with gentle rocking, and the beads were washed twice with lysis buffer and twice with PI3-K assay buffer (20 mM Tris [pH 7.5], 100 mM NaCl, 0.5 mM EGTA, 20 mM MgCl2). PI was dissolved in chloroform (5 mg/ml) and diluted to 0.5 mg/ml with PI3-K assay buffer, followed by sonication. […] Five microliters of washed chloroform phase from each sample was loaded on a TLC plate and analyzed by ascending chromatography in chloroform-methanol-29.5% ammonium hydroxide-water (90:90:8:19), followed by autoradiography.
Protein expression levels and kinase activities of PI3-K, PDK1, and Akt were determined in cav-1-expressing or vector control LNCaP cells before and after treatment with 1 μM Tg for 48 h (+Tg): (A) PI3-K kinase assay by TLC (top gel); (B) PDK1 IP kinase assay; (C) Akt IP kinase assay using recombinant GSK3 as a substrate. Total protein and phosphorylated protein (indicated by P-prefix before protein name) of each kinase were analyzed and presented in each blot. β-Actin served as a loading control. […]

[1] = Viability assay with MEK inhibitors; conditions: human
Experimental: as §1

PP1 (catalytic subunit) = target: T1, PP1 (catalytic subunit) (Oryctolagus cuniculus, UniProt P62139); assay: In vitro malachite green phosphatase assay with purified cav-1; format: biochemical, rabbit; conditions: 100 ng purified cav-1, 0.02 U PP1
T1 construct: purchased New England BioLabs
Experimental: (§2) PP1 (catalytic subunit) (0.02 U) or PP2A (core enzyme) (0.01 U) was incubated with or without 100 ng of purified cav-1 protein for 1 h at 4° C. Phosphatase assay buffer and a phosphopeptide (K-R-pT-1-R-R) were added to a final volume of 50 μl. Reactions were initialed by the addition of 200 μM phosphopeptide, and reaction mixtures were incubated at room temperature for 10 min. Reactions were terminated by the addition of 100 μl of malachite green solution. Activities of PP1 and PP2A were determined by the measurement of absorbance at 620 nm.
(§3) To determine whether the effects of cav-1 on PP1 and PP2A are direct and whether cav-1 interacts with and inhibits PP1 and PP2A in vitro, in vitro IP experiments were performed using purified His-V5-tagged human cav-1, PP1 (C subunit), and PP2A (core enzyme). […] The results of in vitro phosphatase assays indicate that the addition of cav-1 reduced PP1 and PP2A activities by approximately 30% under these basic conditions (FIG. 3F). Briefly, cells were treated with purified cav-1 (¢) or not treated with purified cav-1 (£) and relative activity was determined by measuring the optical density at 620 nm (OD620).

PP2A (core enzyme) = target: T2, PP2A (core enzyme) (Homo sapiens, UniProt P67775); assay: as above; format: biochemical; conditions: 100 ng purified cav-1, 0.01 U PP2A
T2 construct: purchased Upstate Biotechnology
Experimental: as §2, §3

T1 sequence (P62139 whole entry): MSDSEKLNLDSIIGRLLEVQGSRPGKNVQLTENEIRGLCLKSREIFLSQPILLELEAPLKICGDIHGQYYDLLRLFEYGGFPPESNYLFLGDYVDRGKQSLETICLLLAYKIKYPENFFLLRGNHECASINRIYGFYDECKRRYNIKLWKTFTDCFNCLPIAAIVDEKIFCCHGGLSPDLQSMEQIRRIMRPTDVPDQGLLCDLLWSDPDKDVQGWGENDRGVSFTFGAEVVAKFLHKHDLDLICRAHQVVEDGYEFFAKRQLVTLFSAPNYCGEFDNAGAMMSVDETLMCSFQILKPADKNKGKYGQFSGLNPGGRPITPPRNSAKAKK
T2 sequence (P67775 whole entry): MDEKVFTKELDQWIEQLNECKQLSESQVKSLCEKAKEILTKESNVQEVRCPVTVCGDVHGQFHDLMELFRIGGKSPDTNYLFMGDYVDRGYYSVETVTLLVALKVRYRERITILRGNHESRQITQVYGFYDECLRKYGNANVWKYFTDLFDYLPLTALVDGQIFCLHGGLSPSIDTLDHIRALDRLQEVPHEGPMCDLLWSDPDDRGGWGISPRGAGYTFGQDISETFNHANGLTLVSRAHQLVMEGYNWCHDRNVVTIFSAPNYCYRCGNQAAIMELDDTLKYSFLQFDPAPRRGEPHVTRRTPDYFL
T2 sequence (P30153 2-589 partner limits assumed): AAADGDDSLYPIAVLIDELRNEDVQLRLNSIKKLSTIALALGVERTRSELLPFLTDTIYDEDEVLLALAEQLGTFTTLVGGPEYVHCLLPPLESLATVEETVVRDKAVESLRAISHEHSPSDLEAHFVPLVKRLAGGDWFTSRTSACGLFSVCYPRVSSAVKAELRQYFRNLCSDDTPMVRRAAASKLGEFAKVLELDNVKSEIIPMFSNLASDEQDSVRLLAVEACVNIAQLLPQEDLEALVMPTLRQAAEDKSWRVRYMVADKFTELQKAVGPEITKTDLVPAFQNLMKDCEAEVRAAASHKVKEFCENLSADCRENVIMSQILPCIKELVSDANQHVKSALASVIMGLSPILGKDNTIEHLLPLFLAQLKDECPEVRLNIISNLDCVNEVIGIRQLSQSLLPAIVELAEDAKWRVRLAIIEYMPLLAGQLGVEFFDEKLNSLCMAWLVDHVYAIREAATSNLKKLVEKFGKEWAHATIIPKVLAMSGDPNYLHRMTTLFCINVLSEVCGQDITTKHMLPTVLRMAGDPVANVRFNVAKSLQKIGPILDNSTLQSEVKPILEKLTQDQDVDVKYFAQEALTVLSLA

COc1cccc(-c2cc(=O)c3ccccc3o2)c1N [PD98059]
reduction of cell viability (LNCaP cells): ~20% | phosphorylated ERK1/2 (ERK1/2): reduction

C/C=C(/C)C(=O)O[C@H]1C(C)=C2[C@H]([C@@H]1OC(=O)CCCCCCC)[C@@](C)(OC(C)=O)C[C@H](OC(=O)CCC)[C@@]1(O)[C@H]2OC(=O)[C@@]1(C)O [Tg, thapsigargin]
PDK1 activity (PDK1): reduced | PI3-K activity (PI3-K): reduced

N#CC(=C(/N)Sc1ccccc1N)/C(C#N)=C(\N)Sc1ccccc1N [U0126]
cytotoxicity [1]: ~15% | phosphorylated ERK1/2 (ERK1/2): reduction

B1: purified cav-1: purified His-V5-tagged human cav-1 protein (protein, UniProt Q03135 2-178, looked up)
Caveolin-1: SGGKYVDSEGHLYTVPIREQGNIYKPNNKAMADELSEKQVYDAHTKEIDLVNRDPKHLNDDVVKIDFEDVIAEPEGTHSFDGIWKASFTTFTVTKYWFYRLLSALFGIPMALIWGIYFAILSFLHIWAVVPCIKSFLIEIQCISRVYSIYVHTVCDPLFEAVGKIFSNVRINLQKEI
modifications: His-V5 tag
notes: purified His-V5-tagged human cav-1 protein
reduction of PP1 activity (PP1 (catalytic subunit)): approximately 30% | reduction of PP2A activity (PP2A (core enzyme)): approximately 30%
